# Test results from patent US20140155397A1, “EMT SIGNATURES AND PREDICTIVE MARKERS AND METHOD OF USING THE SAME” (Board of Regents, priority 2011, published 2014).
# Tests used:
# Test in all cases: Protein kinase panel
# Assay type in all cases: biochemical
# Flt3 = molecular target: T1, Flt3 (Homo sapiens, UniProt P36888)
# T1 sequence (P36888 27-993): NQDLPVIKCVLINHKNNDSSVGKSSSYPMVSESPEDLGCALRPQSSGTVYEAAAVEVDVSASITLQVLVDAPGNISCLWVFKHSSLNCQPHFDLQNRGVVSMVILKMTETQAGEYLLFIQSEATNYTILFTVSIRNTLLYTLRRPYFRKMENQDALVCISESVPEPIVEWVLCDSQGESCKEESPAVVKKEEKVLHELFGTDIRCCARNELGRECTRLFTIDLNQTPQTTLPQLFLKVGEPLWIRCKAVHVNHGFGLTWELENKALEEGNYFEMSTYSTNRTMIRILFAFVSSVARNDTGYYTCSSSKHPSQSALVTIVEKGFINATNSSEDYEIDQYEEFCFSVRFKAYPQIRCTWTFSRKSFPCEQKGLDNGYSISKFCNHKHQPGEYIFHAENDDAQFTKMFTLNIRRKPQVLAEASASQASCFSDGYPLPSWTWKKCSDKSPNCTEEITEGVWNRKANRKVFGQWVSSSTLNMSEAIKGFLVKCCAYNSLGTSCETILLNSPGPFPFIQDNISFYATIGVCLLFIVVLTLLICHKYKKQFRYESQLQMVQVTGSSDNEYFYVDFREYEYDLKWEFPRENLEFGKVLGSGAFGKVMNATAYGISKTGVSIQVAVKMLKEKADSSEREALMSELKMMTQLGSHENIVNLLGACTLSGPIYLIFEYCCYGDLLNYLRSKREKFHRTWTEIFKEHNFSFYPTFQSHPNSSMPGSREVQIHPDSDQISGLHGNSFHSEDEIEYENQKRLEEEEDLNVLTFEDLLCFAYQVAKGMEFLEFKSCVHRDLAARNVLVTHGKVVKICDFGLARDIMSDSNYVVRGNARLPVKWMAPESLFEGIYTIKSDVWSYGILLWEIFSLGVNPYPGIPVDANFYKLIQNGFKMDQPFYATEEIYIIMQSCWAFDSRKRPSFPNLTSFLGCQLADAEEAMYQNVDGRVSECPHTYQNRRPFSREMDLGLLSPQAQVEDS
# Text: (§1) Purified recombinant AXL kinase was used to screen a library of structures with appropriate drug-like scaffolds to identify potential inhibitors. Hits from the screen were confirmed and r analyzed by selection criteria including Lipinski rules. One pyrrolopyrimidine-based compound was selected for structure-activity relationship efforts. Optimization of this scaffold and subsequent evaluation led to the generation of compound SG1-7079 as the lead candidate inhibitor (FIG. 10). […] SGI-7079 was screened against a panel of protein kinases to determine both selectivity and biochemical potency.
# Syk = Syk (Homo sapiens, UniProt P43405)
# Text: as §1
# Ret = Ret (Homo sapiens, UniProt P07949)
# Sequence of Ret (P07949 29-1114, species assumed): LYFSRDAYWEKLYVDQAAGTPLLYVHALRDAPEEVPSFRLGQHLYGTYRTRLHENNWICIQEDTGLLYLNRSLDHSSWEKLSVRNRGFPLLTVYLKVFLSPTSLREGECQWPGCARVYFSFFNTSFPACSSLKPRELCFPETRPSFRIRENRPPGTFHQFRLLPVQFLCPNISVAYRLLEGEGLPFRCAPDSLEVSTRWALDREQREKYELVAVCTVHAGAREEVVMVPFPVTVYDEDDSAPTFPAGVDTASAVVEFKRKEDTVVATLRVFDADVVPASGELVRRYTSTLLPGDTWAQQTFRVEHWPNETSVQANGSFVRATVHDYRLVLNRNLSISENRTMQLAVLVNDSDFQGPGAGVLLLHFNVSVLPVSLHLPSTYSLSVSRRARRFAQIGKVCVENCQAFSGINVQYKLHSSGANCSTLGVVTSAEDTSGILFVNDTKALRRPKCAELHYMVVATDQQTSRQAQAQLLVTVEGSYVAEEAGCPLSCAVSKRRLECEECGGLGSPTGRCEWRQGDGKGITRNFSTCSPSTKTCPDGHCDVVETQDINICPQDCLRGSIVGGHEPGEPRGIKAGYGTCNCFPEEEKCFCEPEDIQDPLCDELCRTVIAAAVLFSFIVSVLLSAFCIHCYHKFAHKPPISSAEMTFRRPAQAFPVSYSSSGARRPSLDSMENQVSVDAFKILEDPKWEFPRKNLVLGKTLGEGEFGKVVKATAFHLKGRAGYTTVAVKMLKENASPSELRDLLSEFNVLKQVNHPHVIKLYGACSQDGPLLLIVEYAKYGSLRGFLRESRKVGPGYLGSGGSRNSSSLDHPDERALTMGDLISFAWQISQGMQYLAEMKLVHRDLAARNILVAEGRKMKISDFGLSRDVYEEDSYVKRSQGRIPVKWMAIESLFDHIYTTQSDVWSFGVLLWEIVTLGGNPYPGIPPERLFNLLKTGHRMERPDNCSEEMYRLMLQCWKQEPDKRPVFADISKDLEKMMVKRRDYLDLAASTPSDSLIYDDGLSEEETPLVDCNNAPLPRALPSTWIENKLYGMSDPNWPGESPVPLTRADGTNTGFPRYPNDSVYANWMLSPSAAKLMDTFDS
# Text: as §1
# TrkA = TrkA (Homo sapiens, UniProt P04629)
# Sequence of TrkA (P04629 33-796, species assumed): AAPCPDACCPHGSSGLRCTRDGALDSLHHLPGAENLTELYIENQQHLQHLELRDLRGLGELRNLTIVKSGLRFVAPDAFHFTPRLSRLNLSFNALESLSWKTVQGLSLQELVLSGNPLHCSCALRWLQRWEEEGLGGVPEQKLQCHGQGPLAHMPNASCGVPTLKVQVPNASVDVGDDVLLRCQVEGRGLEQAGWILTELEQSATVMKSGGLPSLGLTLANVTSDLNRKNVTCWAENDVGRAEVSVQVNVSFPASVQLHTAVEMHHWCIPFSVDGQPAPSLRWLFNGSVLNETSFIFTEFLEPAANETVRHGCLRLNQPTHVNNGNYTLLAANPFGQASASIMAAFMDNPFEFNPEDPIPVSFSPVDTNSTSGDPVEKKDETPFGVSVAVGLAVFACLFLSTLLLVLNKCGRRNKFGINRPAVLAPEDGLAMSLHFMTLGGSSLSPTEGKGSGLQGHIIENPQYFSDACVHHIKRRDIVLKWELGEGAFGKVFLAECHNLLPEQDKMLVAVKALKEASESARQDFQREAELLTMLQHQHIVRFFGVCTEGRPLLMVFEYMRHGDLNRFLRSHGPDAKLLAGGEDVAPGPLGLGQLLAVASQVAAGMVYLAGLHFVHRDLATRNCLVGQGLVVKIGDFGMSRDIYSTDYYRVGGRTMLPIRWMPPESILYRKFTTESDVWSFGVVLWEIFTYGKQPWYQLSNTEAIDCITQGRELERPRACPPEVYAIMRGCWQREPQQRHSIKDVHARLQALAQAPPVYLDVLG
# Text: as §1
# PDGFRβ = PDGFRβ (Homo sapiens, UniProt P09619)
# Sequence of PDGFRβ (P09619 33-1106, species assumed): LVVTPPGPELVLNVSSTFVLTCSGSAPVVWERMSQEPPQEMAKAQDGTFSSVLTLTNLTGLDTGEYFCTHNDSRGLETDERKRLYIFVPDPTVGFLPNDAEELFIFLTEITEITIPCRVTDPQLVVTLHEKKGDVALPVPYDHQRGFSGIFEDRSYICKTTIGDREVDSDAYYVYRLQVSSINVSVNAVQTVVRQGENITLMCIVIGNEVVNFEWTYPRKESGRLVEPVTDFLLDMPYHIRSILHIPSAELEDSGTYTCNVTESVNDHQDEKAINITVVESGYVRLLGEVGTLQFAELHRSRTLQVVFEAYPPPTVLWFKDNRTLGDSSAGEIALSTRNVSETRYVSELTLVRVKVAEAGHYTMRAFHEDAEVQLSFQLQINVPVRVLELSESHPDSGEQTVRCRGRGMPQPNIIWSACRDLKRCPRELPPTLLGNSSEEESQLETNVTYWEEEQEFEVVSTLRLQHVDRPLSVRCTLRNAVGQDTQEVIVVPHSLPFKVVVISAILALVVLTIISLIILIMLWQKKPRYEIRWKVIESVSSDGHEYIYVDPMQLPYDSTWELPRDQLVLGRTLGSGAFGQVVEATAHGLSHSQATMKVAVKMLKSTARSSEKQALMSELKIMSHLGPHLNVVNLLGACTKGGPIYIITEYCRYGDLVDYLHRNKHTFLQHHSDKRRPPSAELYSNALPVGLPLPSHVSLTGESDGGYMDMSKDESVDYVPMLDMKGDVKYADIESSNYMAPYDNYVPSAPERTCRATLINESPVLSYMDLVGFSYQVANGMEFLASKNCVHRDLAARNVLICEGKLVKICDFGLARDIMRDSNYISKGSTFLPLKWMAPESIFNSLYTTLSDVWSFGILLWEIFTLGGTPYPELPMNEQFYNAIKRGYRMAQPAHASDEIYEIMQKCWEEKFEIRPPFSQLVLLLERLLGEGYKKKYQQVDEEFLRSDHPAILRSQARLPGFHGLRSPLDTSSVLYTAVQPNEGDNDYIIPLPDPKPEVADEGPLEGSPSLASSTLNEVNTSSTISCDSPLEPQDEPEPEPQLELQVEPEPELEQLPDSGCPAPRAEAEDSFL
# Text: as §1
# Tyro3 = molecular target: T2, Tyro3 (Homo sapiens, UniProt Q06418)
# T2 sequence (Q06418 41-890): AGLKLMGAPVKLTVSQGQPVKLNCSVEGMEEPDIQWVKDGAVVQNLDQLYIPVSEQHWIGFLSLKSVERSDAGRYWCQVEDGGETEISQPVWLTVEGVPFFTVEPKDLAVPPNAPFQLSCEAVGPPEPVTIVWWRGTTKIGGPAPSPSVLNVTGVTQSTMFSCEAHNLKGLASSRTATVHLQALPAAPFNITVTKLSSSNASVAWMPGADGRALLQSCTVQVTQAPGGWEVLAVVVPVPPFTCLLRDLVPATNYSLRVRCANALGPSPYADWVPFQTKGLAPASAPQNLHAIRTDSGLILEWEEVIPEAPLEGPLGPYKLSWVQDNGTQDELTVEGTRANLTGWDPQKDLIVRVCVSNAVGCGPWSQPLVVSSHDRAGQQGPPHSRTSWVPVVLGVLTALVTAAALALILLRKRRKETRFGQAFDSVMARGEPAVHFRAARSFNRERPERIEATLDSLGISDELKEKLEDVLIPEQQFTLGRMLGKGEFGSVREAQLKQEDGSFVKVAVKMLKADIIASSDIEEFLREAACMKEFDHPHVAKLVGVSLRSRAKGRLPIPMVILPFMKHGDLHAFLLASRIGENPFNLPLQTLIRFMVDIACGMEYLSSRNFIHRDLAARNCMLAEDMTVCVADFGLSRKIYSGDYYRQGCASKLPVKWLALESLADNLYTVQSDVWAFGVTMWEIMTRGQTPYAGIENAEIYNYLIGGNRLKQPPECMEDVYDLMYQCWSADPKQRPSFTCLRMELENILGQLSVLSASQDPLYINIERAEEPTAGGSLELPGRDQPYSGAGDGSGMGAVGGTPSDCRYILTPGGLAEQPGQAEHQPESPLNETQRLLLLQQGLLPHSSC
# Text: as §1
compound,measurement,setting,value
Cc1c[nH]c2nc(Nc3ccc(N4CCN(C)CC4)c(F)c3)nc(-c3cccc(CC#N)c3)c12 [SGI-7079],Inhibition of Flt3,Flt3,"potent, low nM inhibition"
same,Inhibition of Syk,Syk,"potent, low nM inhibition"
same,Inhibition of Ret,Ret,"potent, low nM inhibition"
same,Inhibition of TrkA,TrkA,"potent, low nM inhibition"
same,Inhibition of PDGFRβ,PDGFRβ,"potent, low nM inhibition"
same,Inhibition of Tyro3,Tyro3,similarly as AXL
